Earlier results on one molecule are cited in patent publication US9668974B2, “Depot formulations of a local anesthetic and methods for preparation thereof” (PAINREFORM LTD., priority 2012, dated 2017).

For this data set the following is noted: in vivo.

Take `CCCN1CCCC[C@H]1C(=O)Nc1c(C)cccc1C` [ropivacaine]: the Toxic threshold (plasma ropivacaine) was 0.6 µg/mL.
